Results from patent publication US20240423944A1, “USE OF LAURYL GALLATE (LG) AS A HEMOSTATIC AGENT” (CENTRE DE BIOTECHNOLOGIE DE SFAX (CBS), priority 2021, published 2024).

What was measured:
washed human platelets [1] = assay: Washed platelet aggregation by turbidimetry (light transmission aggregometer); assay type: cell-based
Experimental: Healthy volunteers had abstained from Aspirin and others anti-inflammatory drugs for at least […] prior to blood sampling. Written informed consent was obtained from all donors. Blood samples were collected into sodium citrate 3.2% and centrifuged for 10 min at 190 g. The supernatant thus obtained was the platelet-rich plasma (PRP).
Washed platelets were prepared from centrifuged PRP previously supplemented with rostacyclin (0.5 μM) to avoid platelet activation. The pellet was suspended in buffer A (pH 6.8) containing 140 mM NaCl, 5 mM KCl, 5 mM KH2PO4, 1 mM MgSO4, 10 mM N-2-hydroxyethylpiperazine-N′-2-ethanesulfonic acid, 5 mM glucose and 0.35% bovine serum albumin (w/v). The same buffer containing 1 mM CaCl2 and apyrase but without BSA (adjusted to pH 7.4) was added to the final suspension to reach 2×10^8 platelets/ml.
Different concentrations of LG were added to 270 μl of PRP or washed platelets from an initial concentration of 250 mM. Platelet aggregation was recorded using a light transmission aggregometer (SD Medical). The percentage of transmittance of PRP or washed platelets was recorded as 0%, and that of the appropriate PPP or buffer was recorded as 100% respectively. Each condition was repeated for many healthy volunteers. Platelets treated with DMSO serves as negative control. Potentiation between low doses of LG and collagen or TRAP to aggregate platelets was also determined.

platelets = settings: Hongyan and Richard, 2004; cited from earlier work
p38 MAPK = assay: Western blotting of p38 MAPK phosphorylation (Thr180/Tyr182); assay type: cell-based, human
Experimental: (§1) Washed platelets were treated with LG (LC and HC) or DMSO. Aliquots were taken at 0, 2.5, 5 and 10 min, lysed with sample buffer and boiled. Proteins were loaded on to sodium dodecyl sulfate 10% polyacrylamide gel and, after electrophoresis, transferred to a nitrocellulose membrane. […] Phospho antibodies were diluted in TBS-Tween 5%-BSA (w/v) and incubated overnight and the others for 2 h. After washing, each blot was incubated with the corresponding horseradish peroxidase-conjugated anti-mouse or anti-rabbit. Immunoblots were developed using Super signal chemiluminescent substrate (Pierce, Rockford, IL) and analyzed with chemidoc Imaging system (Biorad).

[2] = test system: washed platelets from healthy donors; assay: Measurement of LDH leakage from washed platelets; assay type: cell-based, human; settings: low doses of LG 0.1 mM), 10 min
Experimental: Washed platelets from healthy donors were treated with different doses of LG or control (DMSO) for 10 minutes at 37° C. Following, platelets were pelleted by centrifugation at 1800×g for 3 min. Supernatants were used to detect Lactate dehydrogenase (LDH) release by colorimetric method (Thermo Fisher Scientific), according to the manufacturer's protocol. The assay was performed in endpoint time of increased of formazan absorbance at 680 nm for 30 min. Maximal LDH leakage was obtained with lysis buffer. Results, expressed as percentage of LDH leakage are mean±SEM (n=6) (** p<0.01, *** p<0.001 according to Kruskal-Wallis test).

phosphatidylserine (PS) = assay: Phosphatidylserine exposure by annexin V binding (flow cytometry); assay type: cell-based, human; settings: LG 0.05 mM
Experimental: For phosphatidylserine exposure, washed platelets were pre-incubated with LG 0.05 mM or DMSO for 5 min at 37° C. Dilute the activated or non-activated sample with the 1× binding buffer provided in the kit to a final volume of 100 μl and add 5 μl of Annexin V AF647 (Clinisciences) for 15 min at 37° C. in the dark. The binding reaction is stopped with 500 ill of 1× binding buffer (Ramstrom 2010). Analysis was performed using LSR Fortessa cytometer (BD Biosciences).

Akt = assay: Western blotting of Akt phosphorylation (Ser473); assay type: cell-based, human
Experimental: as §1

fungi = settings: Kubo et al, 2003; cited from earlier work
αIIbβ3 integrin = assay: Flow cytometry of αIIbβ3 activation with PAC-1 antibody; assay type: cell-based, human
Experimental: (§2) Washed platelets were pre-incubated with LG or DMSO for 5 and 10 min at 37° C. Samples were then incubated for 15 min at room temperature in the dark with anti-CD62P, anti-CD63 or monoclonal antibody PAC-1. This last recognize and binds only to the active form of integrin αIIbβ3 complex. Analysis of respective protein was performed using a FACS-Verse cytometer BD Biosciences). Platelets were identified on the basis of their Forward Scatter and Side Scatter properties.

CD63 = assay: Flow cytometry of dense granule secretion marker CD63; assay type: cell-based, human; settings: following addition of LG
Experimental: as §2

tumoral cell lines = settings: Ortega et al, 2003; cited from earlier work
Wistar rats = assay: Rat tail bleeding time; assay type: in vivo
Experimental: Wistar rats of either gender weighing between 200 and 250 g were purchased from the Central Pharmacy of Tunisia. Animal handling conforms to the European Convention (CE. no. 123). Animals were fed a standard chow diet and had free access to water. They were housed five rats in a cage (0.12 m^2). Bleeding time was measured by transection of the tail, 1 cm from the tip, of phenobarbital anesthetized rats (25 mg/kg. i.p). Immediately after transection, the tail was dipped for 5 seconds into LG solution (5, 50, or 100 mg/ml of LG dissolved in ethanol) or vehicle (ethanol) and then placed carefully on Whatman paper. Blood was allowed to drop on filter paper which was moved gently every 30 seconds until no more blood was dropped. […] The bleeding time was also determined for a lot of rats not treated with any solution (control) and for another treated with ethanol to test the effect of the solvent. Tranexamic acid (100 mg/ml) was used as a standard anti-hemorrhagic drug under the same conditions. Each condition was repeated for six rats.

Src kinases = assay: Western blotting of Src kinase cleavage; assay type: cell-based, human
Experimental: as §1

human whole blood = assay: Thrombus formation on immobilized collagen under flow conditions; assay type: cell-based; settings: LG 0.05 mM
Experimental: This method was performed as previously described (Gratacap et al, 2009). Briefly, biochips with micro-capillaries (Vena8Fluoro+®, Cellix) were coated with collagen type I. Epi-fluorescence microscope (Axio Observer; Carl Zeiss) allowed direct visualization of platelet adhesion and aggregation which was recorded with ORCA-R2 camera (Hamamatsu). Whole blood was collected into 13.6 UI/m1 lithium heparinate and platelets were labeled with DIOC6(Life Technologies, 2 μM, 10 min at 37° C.) LG (0.05 mM) was then added to blood just prior to injection through a micro-capillary at shear rate of 1500 s^−1. Thrombus formation was visualized with a 40× long working distance objective in real time. The range was fixed to 80 μm and the interval to 1.5 μm. The acquisition rate was chosen at one frame every 30 sec divided into two positions. Quantification of surface coverage was performed off-line using ImageJ software.

[3] = test system: washed platelets from healthy donors; assay: Scanning electron microscopy of platelets; assay type: cell-based, human; settings: 10 min, non-shaking
Experimental: Platelets are treated with TRAP 25 μM, LG (LC and HC) during 10 minutes. They were fixed in 2.5% glutaraldehyde in 0.1 M Sorensen phosphate buffer (pH 7.4) for at least 1 h at 37° C. After sedimentation, the pellets were re-suspended in water and made to adhere on poly-lysine coated glass coverslips. Platelets were then dehydrated in a graded ethanol series and dried by critical point drying with a Leica EM CPD 300. The samples were coated with 6 nm Platinium on a Leica EM Med 020 before being examined on a FEI Quanta 250 FEG scanning electron microscope, at an accelerating voltage of 5 kV (Valet 2021).

[4] = test system: Gram-positive bacteria like Bacillus subtilis or Streptococcus mutans; settings: cited from earlier work
animal viruses = settings: Hurtado et al, 2008; cited from earlier work
washed human platelets [5] = assay: Calcium mobilization with CalciFluor 8-AM and flow cytometry; assay type: cell-based
Experimental: Platelet calcium flux was adapted from the work described by (Monteiro et al. 1999). Washed platelets re-suspended at 10^8/ml in platelet wash buffer were incubated with the calcium indicator dyes Calcifluor 8-AM (R&D system) at 5 μM and Pluronic F-127 0.02% v/v (Sigma Aldrich) for 30 min at 37° C. The platelets were washed twice with platelet wash buffer, re-suspended in Tyrode's buffer containing EGTA (1 mM) or BAPTA-AM (10 μM). Changes in cytosolic calcium concentration were associated with increased or decreased fluorescence emission of Calcifluor 8-AM (emission wavelengths of 500-570 nm). These changes were analyzed using flow cytometry BD LSRII Fortessa. Results were expressed in fold increased Median Fluorescence. The determination of internal calcium concentration in platelet was described by Grynkiewicz et al. (1985).

CD62-P (P-selectin) = assay: Flow cytometry of α-granule secretion marker CD62-P; assay type: cell-based, human
Experimental: as §2

For collagen [reference compound], which “platelet aggregation by agonist alone” value (washed human platelets [1]; collagen 0.15 μg/ml alone) is on record?
The value was “unable to trigger detectable platelet aggregation”.

Which platelet aggregation (platelets) does the source give for `CCCOC(=O)c1cc(O)c(O)c(O)c1` [propyl gallate] here?
The platelet aggregation was “induce platelet aggregation”.

What does the source list for `CCCCCCCCCCCCOC(=O)c1cc(O)c(O)c(O)c1` [LG, Dodecyl 3,4,5-trihydroxybenzoate]?
p38 MAPK phosphorylation (p38 MAPK; LG 0.05 mM): rapid activation; p38 MAPK activation (p38 MAPK; LG 0.75 mM): at later times; LDH release from platelets [2]: no significant LDH release; exposure of PS on the platelet surface (annexin V binding) (phosphatidylserine (PS)): significant exposure; Akt phosphorylation (Akt; LG 0.05 mM): rapid activation; Akt activation (Akt; LG 0.75 mM): at later times; antifungal activity (fungi): does not have antifungal activity; activation of αIIbβ3, lower than that induced by 50 μM TRAP (αIIbβ3 integrin; LG 0.05 mM versus 50 μM TRAP): 50%; expression of the active form of the fibrinogen receptor αIIbβ3 (αIIbβ3 integrin; particularly at 0.05 mM): significant increase; plasma membrane expression level of CD63 (CD63): significantly increased; maximal platelet aggregation (washed human platelets [1]; LG 0.05 mM alone, washed human platelets, fast and stable): ~80%; maximal platelet aggregation (washed human platelets [1]; high concentrations of LG (0.75 mM), slow response): ~50%; shape of dose-response of platelet aggregation (washed human platelets [1]; increasing concentrations, first peak 0.05 mM, decrease until 0.2 mM, plateau 0.75 to 1 mM): non-monotonic dose-response; anti-proliferative and pro-apoptotic activity (tumoral cell lines): anti-proliferative and pro-apoptotic activity; efficiency on bleeding time compared with tranexamic acid (Wistar rats; LG 50 mg/ml versus tranexamic acid 100 mg/ml in ethanol): significantly more efficient; tail bleeding time (Wistar rats; tail dipped 5 seconds, 50 mg/ml LG in ethanol): dramatically reduced; Src-kinase cleavage (Src kinases; LG 0.75 mM, substantial at 10 min): induced a cleavage of Src-kinase; Src-kinase cleavage (Src kinases; low dose of LG (0.05 mM)): no impact; surface covered by platelets (human whole blood; collagen matrix, arterial shear rate): significantly increased; thrombus volumes compared to control (human whole blood; collagen-coated microcapillaries, shear rate 1500 s^−1): significantly increased; time to capillary occlusion (human whole blood; in several experiments, recording 300 s): < 300 s; platelet morphology ([3]; LG 0.05 mM): induced platelet shape change and filopodia formation; platelet morphology ([3]; LG 0.75 mM): membrane structure was strongly modified with a grainy appearance and apparent pores formation; antibacterial activity [4]: antibacterial activity; antiviral activity (animal viruses): potent antiviral activity; cytoplasmic free calcium concentration (washed human platelets [5]; LG 0.05 mM, after 2.5 min): 230 ± 25 nM; free cytosolic calcium (washed human platelets [5]; LG 0.75 mM, at 0.5 min): 105 ± 15 nM; expression of CD62-P on the plasma membrane (CD62-P (P-selectin); LG 0.05 mM): markedly increased; expression of CD62-P on the plasma membrane (CD62-P (P-selectin); LG 0.75 mM): markedly increased; α-granule secretion intensity compared with 50 μM TRAP (CD62-P (P-selectin); versus 50 μM TRAP): slightly lower
